Measured values as given in US20110251286A1, “Crystalline salts and/or co-crystals of O-desmethyltramadol” (GRUENENTHAL GmbH, priority 2010, published 2011).

What was measured:
[1] = Dynamic vapor sorption (DVS): sorption and desorption of moisture; type: physicochemical
Procedure: Investigations on the sorption and desorption of moisture (dynamic vapor sorption, DVS): DVS measurements were carried out on an apparatus of the type DVS 1000 from Porotec. The evaluation of the measurements was carried out using software from Surface Measurement Systems. At a temperature between 23° C. and 26° C., starting from a relative humidity of 50%, within 240 minutes the relative humidity first increased to 90% and then fell to 0%. This cycle was repeated a second time. The DVS charts shown are isothermal recordings (plots) of the change in the mass in % (change in mass—dry) as a function of the desired relative humidity in % (target RH). Correspondingly, the axes of the graphs are marked by ΔM [%] and RH [%]. The measurement curves of the first sorption are designated by 1-S, the subsequent first desorption by 1-D, the second sorption by 2-S and the second desorption by 2-D. Advantageously, mass changes between the sorption and desorption phase are as low as possible.

[2] = Release in artificial intestinal juice; type: physicochemical; conditions: for release rate compared to the hydrochloride salt: in artificial intestinal juice; for Release in artificial intestinal juice, percent of the substance released: permeable bag, amount calculated on 100 mg free base
Procedure: Investigations on release were carried out in a Sotax AT7 smart release apparatus with UV measurement (Perkin Elmer photometer).
A vessel with Wood apparatus was used (for intrinsic release).
A pressing of 0.5 cm^2 surface area (diameter 8 mm) was produced with a force of 200 N using approximately 100 mg of active ingredient.
Release was carried out in a release medium, which is composed as described below: • Intestinal juice without pancreas powder, pH 6.8 (analogous to Ph. Eur.); 250.0 ml 6.8 g of potassium dihydrogenphosphate R+0.896 g of NaOH+water to 1000.0 ml.
Release was carried out in a release volume of in each case 500±5 ml at a temperature of the release medium of 37±1° C. with a stirring speed of 100±5 rpm.
The content determination was carried out by means of spectroscopic methods (UV spectroscopy, wavelength: 271 nm, cuvette: 10 mm). Sample taking was carried out manually.
In this release experiment, the individual compounds were placed in a permeable bag in an amount in each case calculated on 100 mg of the free base.
The results, expressed in percent of the substance released, are reproduced in the following tables. In this case, the compounds denote: HCl: hydrochloride; A: cinnamate; B: palmitate; C: decanoate; E: hemi-fumarate and F: hemi-sebacate.

## CN(C)CC1CCCCC1(O)c1cccc(O)c1.CN(C)CC1CCCCC1(O)c1cccc(O)c1.O=C(O)CCCCCCCCC(=O)O (stereo not shown) [hemi-sebacate]
[1]; DVS 1st cycle, RH 0.0%
  ΔM Desorption: 0.0000%
[1]; DVS 1st cycle, RH 10.0%
  ΔM Desorption: 0.0235%
[1]; DVS 1st cycle, RH 20.0%
  ΔM Desorption: 0.0308%
[1]; DVS 1st cycle, RH 30.0%
  ΔM Desorption: 0.0323%
[1]; DVS 1st cycle, RH 40.0%
  ΔM Desorption: 0.0338%
[1]; DVS 1st cycle, RH 50.0%
  ΔM Desorption: 0.0323%
  ΔM Hysteresis: −0.0382%
  ΔM Sorption: 0.0704%
[1]; DVS 1st cycle, RH 60.0%
  ΔM Desorption: 0.0293%
  ΔM Hysteresis: −0.0396%
  ΔM Sorption: 0.0690%
[1]; DVS 1st cycle, RH 70.0%
  ΔM Desorption: 0.0220%
  ΔM Hysteresis: −0.0132%
  ΔM Sorption: 0.0352%
[1]; DVS 1st cycle, RH 80.0%
  ΔM Desorption: 0.0088%
  ΔM Hysteresis: 0.0205%
  ΔM Sorption: −0.0117%
[1]; DVS 1st cycle, RH 90.0%
  ΔM Desorption: −0.0499%
  ΔM Sorption: −0.0499%
[1]; DVS 2nd cycle, RH 0.0%
  ΔM Desorption: 0.1585%
  ΔM Sorption: 0.0000%
[1]; DVS 2nd cycle, RH 10.0%
  ΔM Desorption: 0.1790%
  ΔM Hysteresis: 0.1438%
  ΔM Sorption: 0.0352%
[1]; DVS 2nd cycle, RH 20.0%
  ΔM Desorption: 0.1834%
  ΔM Hysteresis: 0.1291%
  ΔM Sorption: 0.0543%
[1]; DVS 2nd cycle, RH 30.0%
  ΔM Desorption: 0.1878%
  ΔM Hysteresis: 0.1174%
  ΔM Sorption: 0.0704%
[1]; DVS 2nd cycle, RH 40.0%
  ΔM Desorption: 0.1922%
  ΔM Hysteresis: 0.1042%
  ΔM Sorption: 0.0880%
[1]; DVS 2nd cycle, RH 50.0%
  ΔM Desorption: 0.1849%
  ΔM Hysteresis: 0.0880%
  ΔM Sorption: 0.0968%
[1]; DVS 2nd cycle, RH 60.0%
  ΔM Desorption: 0.1761%
  ΔM Hysteresis: 0.0704%
  ΔM Sorption: 0.1057%
[1]; DVS 2nd cycle, RH 70.0%
  ΔM Desorption: 0.1629%
  ΔM Hysteresis: 0.0719%
  ΔM Sorption: 0.0910%
[1]; DVS 2nd cycle, RH 80.0%
  ΔM Desorption: 0.1350%
  ΔM Hysteresis: 0.0616%
  ΔM Sorption: 0.0734%
[1]; DVS 2nd cycle, RH 90.0%
  ΔM Desorption: 0.0484%
  ΔM Sorption: 0.0484%
[1]; DVS 3rd cycle (partial), RH 0.0%
  ΔM Sorption: 0.1585%
[1]; DVS 3rd cycle (partial), RH 10.0%
  ΔM Sorption: 0.1937%
[1]; DVS 3rd cycle (partial), RH 20.0%
  ΔM Sorption: 0.2113%
[1]; DVS 3rd cycle (partial), RH 30.0%
  ΔM Sorption: 0.2245%
[1]; DVS 3rd cycle (partial), RH 40.0%
  ΔM Sorption: 0.2377%
[1]; DVS 3rd cycle (partial), RH 50.0%
  ΔM Sorption: 0.2465%
[2]
  release rate compared to the hydrochloride salt: decreased release rates compared to the hydrochloride salt

## O=C(O)/C=C/c1ccccc1 [cinnamate]
[1]; 1st cycle, RH 0.0 %
  ΔM Desorption: 0.0012%
[1]; 1st cycle, RH 10.0 %
  ΔM Desorption: 0.0432%
[1]; 1st cycle, RH 20.0 %
  ΔM Desorption: 0.0766%
[1]; 1st cycle, RH 30.0 %
  ΔM Desorption: 0.1106%
[1]; 1st cycle, RH 40.0 %
  ΔM Desorption: 0.1370%
[1]; 1st cycle, RH 50.0 %
  ΔM Desorption: 0.1624%
  ΔM Hysteresis: −0.0006%
  ΔM Sorption: 0.1629%
[1]; 1st cycle, RH 60.0 %
  ΔM Desorption: 0.2010%
  ΔM Hysteresis: −0.0299%
  ΔM Sorption: 0.2309%
[1]; 1st cycle, RH 70.0 %
  ΔM Desorption: 0.2562%
  ΔM Hysteresis: −0.0081%
  ΔM Sorption: 0.2643%
[1]; 1st cycle, RH 80.0 %
  ΔM Desorption: 0.2988%
  ΔM Hysteresis: 0.0150%
  ΔM Sorption: 0.2839%
[1]; 1st cycle, RH 90.0 %
  ΔM Desorption: 0.3057%
  ΔM Sorption: 0.3057%
[1]; 2nd cycle, RH 0.0 %
  ΔM Desorption: −0.0605%
  ΔM Sorption: 0.0012%
[1]; 2nd cycle, RH 10.0 %
  ΔM Desorption: −0.0253%
  ΔM Hysteresis: −0.0610%
  ΔM Sorption: 0.0357%
[1]; 2nd cycle, RH 20.0 %
  ΔM Desorption: 0.0046%
  ΔM Hysteresis: −0.0576%
  ΔM Sorption: 0.0622%
[1]; 2nd cycle, RH 30.0 %
  ΔM Desorption: 0.0322%
  ΔM Hysteresis: −0.0576%
  ΔM Sorption: 0.0898%
[1]; 2nd cycle, RH 40.0 %
  ΔM Desorption: 0.0605%
  ΔM Hysteresis: −0.0553%
  ΔM Sorption: 0.1157%
[1]; 2nd cycle, RH 50.0 %
  ΔM Desorption: 0.0881%
  ΔM Hysteresis: −0.0530%
  ΔM Sorption: 0.1411%
[1]; 2nd cycle, RH 60.0 %
  ΔM Desorption: 0.1169%
  ΔM Hysteresis: −0.0461%
  ΔM Sorption: 0.1629%
[1]; 2nd cycle, RH 70.0 %
  ΔM Desorption: 0.1480%
  ΔM Hysteresis: −0.0248%
  ΔM Sorption: 0.1727%
[1]; 2nd cycle, RH 80.0 %
  ΔM Desorption: 0.1658%
  ΔM Hysteresis: −0.0052%
  ΔM Sorption: 0.1710%
[1]; 2nd cycle, RH 90.0 %
  ΔM Desorption: 0.1532%
  ΔM Sorption: 0.1532%
[1]; 3rd cycle, RH 0.0 %
  ΔM Sorption: −0.0605%
[1]; 3rd cycle, RH 10.0 %
  ΔM Sorption: −0.0190%
[1]; 3rd cycle, RH 20.0 %
  ΔM Sorption: 0.0104%
[1]; 3rd cycle, RH 30.0 %
  ΔM Sorption: 0.0345%
[1]; 3rd cycle, RH 40.0 %
  ΔM Sorption: 0.0599%
[1]; 3rd cycle, RH 50.0 %
  ΔM Sorption: 0.0829%
[2]
  release rate compared to the hydrochloride salt: decreased release rates compared to the hydrochloride salt

## CN(C)CC1CCCCC1(O)c1cccc(O)c1.CN(C)CC1CCCCC1(O)c1cccc(O)c1.O=C(O)C=CC(=O)O (stereo not shown) [E-1]
[2]; t 2 min
  Release in artificial intestinal juice, percent of the substance released: 99.32%
[2]; t 4 min
  Release in artificial intestinal juice, percent of the substance released: 100.25%
[2]; t 6 min
  Release in artificial intestinal juice, percent of the substance released: 99.24%
[2]; t 8 min
  Release in artificial intestinal juice, percent of the substance released: 99.47%
[2]; t 10 min
  Release in artificial intestinal juice, percent of the substance released: 100.58%
[2]; t 12 min
  Release in artificial intestinal juice, percent of the substance released: 99.42%
[2]; t 15 min
  Release in artificial intestinal juice, percent of the substance released: 98.40%
[2]; t 30 min
  Release in artificial intestinal juice, percent of the substance released: 100.24%

## CCCCCCCCCCCCCCCC(=O)O.CN(C)CC1CCCCC1(O)c1cccc(O)c1 [B-1]
[2]; t 2 min
  Release in artificial intestinal juice, percent of the substance released: 17.63%
[2]; t 4 min
  Release in artificial intestinal juice, percent of the substance released: 31.60%
[2]; t 6 min
  Release in artificial intestinal juice, percent of the substance released: 55.36%
[2]; t 8 min
  Release in artificial intestinal juice, percent of the substance released: 53.71%
[2]; t 10 min
  Release in artificial intestinal juice, percent of the substance released: 67.26%
[2]; t 12 min
  Release in artificial intestinal juice, percent of the substance released: 69.49%
[2]; t 15 min
  Release in artificial intestinal juice, percent of the substance released: 76.13%
[2]; t 30 min
  Release in artificial intestinal juice, percent of the substance released: 95.50%
